The values below come from patent US10766882B2, “1,2-naphthoquinone based derivative and method of preparing the same” (YUNGJIN PHARM. CO., LTD., priority 2013, dated 2020).

For one assay, the target named is NQO1 protein (Homo sapiens, UniProt P15559). Description: NQO1 activity measurement (cytochrome C reduction). It is filed as biochemical. Conditions: 5 ng NQO1 protein, 200 μM NADH, 77 μM cytochrome C, 37° C., absorbance 550 nm for 10 minutes. The method, then: An enzyme reaction solution included 25 mM Tris/HCl (pH 7.4), 0.14% bovine serum albumin, 200 μM NADH, 77 μM cytochrome C, and 5 ng of NQO1 protein. Enzymatic reaction was initiated by adding NADH and performed at 37° C. In this regard, a reaction rate was measured by observing absorbance, which was increased due to reduction of cytochrome C, at 550 nm for 10 minutes and NQO1 activity was represented as an amount of reduced cytochrome C [nmol cytochrome C reduced/min/μg protein].
NQO1 protein, sequence (P15559 whole entry, species assumed): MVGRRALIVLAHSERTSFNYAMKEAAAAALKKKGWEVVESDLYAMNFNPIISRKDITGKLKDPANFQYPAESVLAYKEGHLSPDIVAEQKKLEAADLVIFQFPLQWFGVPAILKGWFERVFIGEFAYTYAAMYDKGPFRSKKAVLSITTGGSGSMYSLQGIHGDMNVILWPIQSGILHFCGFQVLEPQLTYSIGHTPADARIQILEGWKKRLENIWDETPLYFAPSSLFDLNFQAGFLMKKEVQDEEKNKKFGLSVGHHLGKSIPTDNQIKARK
Extinction coefficient for cytochrome C:21.1 mmol/L/cm=21.1 μmol/ml/cm

The subject of a further assay is C57BL/6J Lep ob/ob mice. Description: Weight loss effects in obese mice (ob/ob). Particulars: vs 0.1% SLS controls. It counts as in vivo. As for the experimental part:
10 week-old C57BL/6J Lep ob/ob mice having genetic obesity characteristics available from ORIENTBIO were prepared. Two mice were raised in each polycarbonate breeding cage (200 W×260 L×130H (mm), Three-shine) in which temperature was 20 to 24° C., relative humidity was 35 to 65%, illuminance was 150 to 300 lux, night and day were 12 hours, and exhaust was performed at 10 to 15 air changes per hour. As a feed, low fat diet (11.9 kcal % fat, 5053, Labdiet) manufactured by ORIENTBIO was used. The feed was contained in a feeder and free intake was allowed. As drinking water, water, which was contained in a 250 mL polycarbonate based bottle, purified through a filter and a sterilizer was used and free intake was allowed.
The compound according to Example 1 synthesized in the present invention was orally administered to three C57BL/6J Lep ob/ob mice in amounts of 40 mg/kg, 80 mg/kg, and 120 mg/kg, respectively, once every day for two weeks. For administration, a disposable syringe fitted with a sonde for oral administration was used and 10 ml/kg of the compound was orally administered into the stomach. As controls, three C57BL/6J Lep ob/ob mice were administered 0.1% sodium lauryl sulfate (SLS) in an amount of 120 mg/kg in the same manner as described above. After administration, a time-dependent weight increase ratio, weight change, and intake amount were measured and results are illustrated in FIG. 1 below.
Weights of the experimental animals were measured immediately before administration of a test material and seven times a week from an administration initiation day to a test termination day. Increased total weights were calculated by subtracting weights measured on an experiment initiation day from weights measured one day before an experiment termination day. Food intake amounts were calculated by measuring feed supply amounts and remaining amounts twice a week from an initiation day of test material administration to a test termination day for each individual. […]
(§1) Experiments were performed under the same conditions as in Experimental Example 3-1 except that 15 week-old C57BL/6J Lep ob/ob mice having genetic obesity characteristics available from ORIENTBIO were prepared, the compounds according to Examples 5 and 6 were administered to three C57BL/6J Lep ob/ob mice in an amount of 150 mg/kg, 150 mg/kg of 0.1% SLS was administered to each of three C57BL/6J Lep ob/ob mice as controls, and experiments were performed for a total of one week. Weight increase ratios, weight change, and intake amounts depending on administration time were measured and results are illustrated in FIG. 5 below.
as §1, with “that 10” for “that 15”, “Examples 8, 9,” for “Examples 5”, “and 12” for “and 6”, “FIG. 6” for “FIG. 5”
Experiments were performed under the same conditions as in Experimental Example 3-1 except that 6 week-old C57BL/6J Lep ob/ob mice having genetic obesity characteristics available from ORIENTBIO were prepared, the compounds according to Examples 17, 18, 22, and 23 were administered to three C57BL/6J Lep ob/ob mice in an amount of 100 mg/kg, 100 mg/kg of 0.1% SLS was administered to each of three C57BL/6J Lep ob/ob mice as controls, and experiments were performed for a total of one week. Weight increase ratios, weight change, and intake amounts depending on administration time were measured and results are illustrated in FIG. 10 below. […]

The subject of another assay is Cells. Description: Measurement of lactate change amount within cells. It is filed as cell-based. Conditions: PCA extract of cells, lactate measured from supernatant (Megazyme, K-LATE). As for the experimental part:
Cells were treated with 400 μl of 6% PCA, and then collected and extracted. Centrifugation (13,000 rpm, 10 min) was performed. A precipitate was dried using a Speed-Vac and then a weight of dried precipitate was measured. A supernatant was neutralized using 400 μl of 1 M KOH and a final volume thereof was adjusted to 1 ml using 0.33 M KH2PO4/K2HPO4, pH 7.5. Centrifugation (13,000 rpm, 10 min) was performed and the amount of lactate was measured from a supernatant (Megazyme, K-LATE).

Setting [1] is: Exp. Ex. 3-13, FIG. 16: 6 week-old ob/ob mice, 100 mg/kg oral, one week.
The mark [2] stands for this setting: Exp. Ex. 3-7, FIG. 10: 6 week-old ob/ob mice, 100 mg/kg oral, one week.
Setting [3] is: Exp. Ex. 3-5, FIG. 5: 15 week-old ob/ob mice, 150 mg/kg oral, one week.
[4] abbreviates: Exp. Ex. 3-4, FIG. 4: 12 week-old ob/ob mice, 150 mg/kg oral, one week.
[5] abbreviates: Exp. Ex. 3-6, FIG. 6: 10 week-old ob/ob mice, 150 mg/kg oral, one week.
[6] abbreviates: Exp. Ex. 3-11, FIG. 14: 6.5 week-old ob/ob mice, 100 mg/kg oral, one week.
The mark [7] stands for this setting: Exp. Ex. 3-12, FIG. 15: 6 week-old ob/ob mice, 100 mg/kg oral, two weeks.

For `CCc1nc2c(n1C)C(=O)C(=O)c1cc(F)ccc1-2` [Example 41, 2-ethyl-7-fluoro-3-methyl-3H-naphtho[2,1-d]imidazole-4,5-dione], the “NQO1 activity (5 μM, [nmol cytochrome C reduced/min/μg protein])” value at NQO1 protein is 148.4 nmol cytochrome C reduced/min/μg protein. In the assay with C57BL/6J Lep ob/ob mice (setting [1]), the intake amount result is on record as “significantly decreased in some sections”, the weight change entry is recorded as “significantly decreased in some sections” and the weight increase ratio entry is recorded as “significantly decreased in some sections”. Besides, the “Lactate change amount within cells (nmol/mg cell)” value (“Lactate change amount within cells” for short) with Cells stood at 7.2 nmol/mg cell.
Regarding `CC(C)c1nc2c([nH]1)C(=O)C(=O)c1cc(F)ccc1-2` [Example 22], the “NQO1 activity (5 μM, [nmol cytochrome C reduced/min/μg protein])” value on NQO1 protein was 206.1 nmol cytochrome C reduced/min/μg protein. In the assay with C57BL/6J Lep ob/ob mice (setting [2]), the intake amount entry was “significantly decreased in some sections”, the weight change result was “significantly decreased in some sections” and the weight increase ratio result is given as “significantly decreased in some sections”. Further, the “Lactate change amount within cells” value in the assay on Cells came out at 7.3 nmol/mg cell.
As to `O=C1C(=O)c2[nH]c(C3CCCCC3)nc2-c2ccccc21` [Example 6, 2-cyclohexyl-3H-naphtho[2,1-d]imidazole-4,5-dione], on NQO1 protein, the “NQO1 activity (5 μM, [nmol cytochrome C reduced/min/μg protein])” value was 253 nmol cytochrome C reduced/min/μg protein. Also, in the assay on C57BL/6J Lep ob/ob mice (setting [3]), the intake amount result is on record as “significantly decreased”, the weight change entry is listed as “significantly decreased” and the weight increase ratio entry is on record as “significantly decreased”. Further, in the assay on Cells, the “Lactate change amount within cells” value was determined as 4.6 nmol/mg cell.
Turning to `O=C1C(=O)c2[nH]c(-c3ccccc3)nc2-c2ccccc21` [Example 4, 2-phenyl-3H-naphtho[2,1-d]imidazole-4,5-dione], the “NQO1 activity (5 μM, [nmol cytochrome C reduced/min/μg protein])” value on NQO1 protein is recorded as 122 nmol cytochrome C reduced/min/μg protein. For the same molecule, in the assay with C57BL/6J Lep ob/ob mice (setting [4]), the weight change entry is reported as “significantly decreased” and the weight increase ratio entry is “significantly decreased”. The “Lactate change amount within cells” value in the assay with Cells was determined as 9.1 nmol/mg cell.
For the molecule `CC(C)Cc1nc2c([nH]1)C(=O)C(=O)c1ccccc1-2` [Example 8], the “NQO1 activity (5 μM, [nmol cytochrome C reduced/min/μg protein])” value at NQO1 protein is on record as 213 nmol cytochrome C reduced/min/μg protein. In the assay with C57BL/6J Lep ob/ob mice (setting [5]), the intake amount result is reported as “significantly decreased”, the weight change entry is on record as “significantly decreased” and the weight increase ratio entry is reported as “significantly decreased”. Besides, the “Lactate change amount within cells” value in the assay on Cells is recorded as 10.0 nmol/mg cell.
Turning to `CCc1nc2c(n1C)C(=O)C(=O)c1ccccc1-2` [Example 38, 2-ethyl-3-methyl-3H-naphtho[2,1-d]imidazole-4,5-dione], the “NQO1 activity (5 μM, [nmol cytochrome C reduced/min/μg protein])” value at NQO1 protein is reported as 142.1 nmol cytochrome C reduced/min/μg protein. Moreover, in the assay with C57BL/6J Lep ob/ob mice (setting [6]), the intake amount entry is given as “significantly decreased in some sections”, the weight change entry is on record as “significantly decreased in some sections” and the weight increase ratio result was “significantly decreased in some sections”. Moreover, in the assay on Cells, the “Lactate change amount within cells” value was determined as 5.2 nmol/mg cell.
Consider `CC(C)c1nc2c(n1Cc1ccc(F)cc1)C(=O)C(=O)c1ccccc1-2` [Example 33], for which, at NQO1 protein, the “NQO1 activity (5 μM, [nmol cytochrome C reduced/min/μg protein])” value is 152.5 nmol cytochrome C reduced/min/μg protein. Besides, in the assay with C57BL/6J Lep ob/ob mice (setting [7]), the intake amount entry is recorded as “significantly decreased in some sections”, the weight change result is listed as “significantly decreased in some sections” and the weight increase ratio result is listed as “significantly decreased in some sections”. Moreover, the “Lactate change amount within cells” value in the assay on Cells was found to be 4.7 nmol/mg cell.
As for `CCc1nc2c(n1C)C(=O)C(=O)c1cc(Cl)ccc1-2` [Example 43, 7-chloro-2-ethyl-3-methyl-3H-naphtho[2,1-d]imidazole-4,5-dione], on NQO1 protein, the “NQO1 activity (5 μM, [nmol cytochrome C reduced/min/μg protein])” value is given as 111.6 nmol cytochrome C reduced/min/μg protein. In the assay on Cells, the “Lactate change amount within cells” value worked out at 6.0 nmol/mg cell.
On the same counts, the results for `CCc1nc2c(n1CC(F)(F)F)C(=O)C(=O)c1ccccc1-2` [Example 40, 2-ethyl-3-(2,2,2-trifluoroethyl)-3H-naphtho[2,1-d]imidazole-4,5-dione] are 192.9 nmol cytochrome C reduced/min/μg protein and 9.7 nmol/mg cell.
On the same counts, the results for `CC(C)c1nc2c([nH]1)C(=O)C(=O)c1cc([N+](=O)[O-])ccc1-2` [Example 16] are 94.0 nmol cytochrome C reduced/min/μg protein and 5.8 nmol/mg cell.
On the same counts, the results for `CCc1nc2c(n1C)-c1ccc(Cl)cc1C(=O)C2=O` [Example 44, 7-chloro-2-ethyl-1-methyl-1H-naphtho[2,1-d]imidazole-4,5-dione] are 43.4 nmol cytochrome C reduced/min/μg protein and 9.5 nmol/mg cell.
On to `CC(C)(C)c1nc2c([nH]1)C(=O)C(=O)c1cccnc1-2` [Example 27], for which the “NQO1 activity (5 μM, [nmol cytochrome C reduced/min/μg protein])” value on NQO1 protein is 207.4 nmol cytochrome C reduced/min/μg protein. The “Lactate change amount within cells” value in the assay with Cells amounted to 9.6 nmol/mg cell.
`CC(C)c1nc2c(n1Cc1ccccc1)-c1ccccc1C(=O)C2=O` [Example 2, 1-benzyl-2-isopropyl-1H-naphtho[2,1-d]imidazole-4,5-dione]: the “NQO1 activity (5 μM, [nmol cytochrome C reduced/min/μg protein])” value at NQO1 protein is on record as 143 nmol cytochrome C reduced/min/μg protein. Moreover, the “Lactate change amount within cells” value in the assay on Cells is recorded as 7.3 nmol/mg cell.
For the molecule `CC(=O)Nc1ccc2c(c1)C(=O)C(=O)c1[nH]c(C(C)C)nc1-2` [Example 19], the “NQO1 activity (5 μM, [nmol cytochrome C reduced/min/μg protein])” value at NQO1 protein is on record as 24.6 nmol cytochrome C reduced/min/μg protein. Also, the “Lactate change amount within cells” value in the assay on Cells turned out to be 6.5 nmol/mg cell.
For the molecule `CC(C)(C)Cc1nc2c([nH]1)C(=O)C(=O)c1ccccc1-2` [Example 15, 2-neopentyl-1H-naphtho[2,1-d]imidazole-4,5-dione], at NQO1 protein, the “NQO1 activity (5 μM, [nmol cytochrome C reduced/min/μg protein])” value is 183.3 nmol cytochrome C reduced/min/μg protein. Further, in the assay with Cells, the “Lactate change amount within cells” value was 7.2 nmol/mg cell.
